{
  "source": "patent US10981899B2",
  "about": "“Inhibitors of soluble adenylyl cyclase” (CORNELL UNIVERSITY, priority 2016, dated 2021)",
  "key": {"human sACt protein [1]": {"target": "T1, human sACt protein (Homo sapiens (Human), UniProt Q96PN6)", "T1 sequence (Q96PN6 1-469)": "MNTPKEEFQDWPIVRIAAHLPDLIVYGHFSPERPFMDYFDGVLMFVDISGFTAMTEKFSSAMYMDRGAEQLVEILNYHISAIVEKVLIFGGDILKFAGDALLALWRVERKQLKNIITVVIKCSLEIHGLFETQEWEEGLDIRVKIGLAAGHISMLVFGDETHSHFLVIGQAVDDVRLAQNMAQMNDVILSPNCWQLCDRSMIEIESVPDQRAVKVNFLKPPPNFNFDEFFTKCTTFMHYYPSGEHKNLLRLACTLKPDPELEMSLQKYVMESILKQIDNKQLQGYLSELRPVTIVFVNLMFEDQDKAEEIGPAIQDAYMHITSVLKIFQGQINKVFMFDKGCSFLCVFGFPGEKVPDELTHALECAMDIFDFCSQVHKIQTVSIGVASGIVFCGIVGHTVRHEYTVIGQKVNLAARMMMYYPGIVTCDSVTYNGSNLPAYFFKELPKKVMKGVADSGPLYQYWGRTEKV", "assay": "Primary high-throughput screen for sAC inhibitors (RF-MSS cyclase assay)", "format": "biochemical", "conditions": "screened at 10 μM; 1 mM ATP, 5 mM MgCl2, 5 mM CaCl2, 40 mM NaHCO3", "description": "This instrument also includes a Zymark Twister® robotic arm that handles microtiter plates and a purification SPE system. 35 μl of sample was aspirated from each well of a 384-well reaction microtiter plate and then injected onto a graphitized carbon SPE column extraction cartridge, washing with aqueous alkaline buffer and eluting it in an alkaline/organic solvent, onto the electrospray-MS, where the mass spectra of each sample was collected. The RapidFire sipper was washed between sample injections using organic (25% acetonitrile, 25% acetone in 5 mM ammonium acetate, pH 10) and aqueous (5 mM ammonium acetate, pH 10) solvents. RapidFire mass spectrometry screening data were processed and analyzed using Agilent MassHunter Software.\nThe primary screen was performed in polystyrene 384-well microplates (Greiner Bio One International AG). […] The reagents were dispensed using a liquid handling instrument Multidrop™ Combi Assay buffer (50 mM Tris pH 7.5, 5 mM CaCl2, 5 mM MgCl2, 40 mM NaHCO3, 2 mM DTT) was added first on the 384-well plate (Greiner Bio-One) followed by the compounds. The small molecule compounds were dispensed with a nanohead containing a 384-well array of Norgren Kloehn nanosyringes, and each plate was bar-coded. The human sACt protein was added next followed by the remainder of the assay buffer. […]"}, "human sACt protein [2]": {"target": "T1, human sACt protein", "assay": "RF-MSS in vitro cyclase assay, concentration-response", "description": "To avoid assay dependent artifacts, reproducibility and concentration-dependency were simultaneously assessed in the RF-MSS cyclase assay as well as in an independent colorimetric competitive enzyme immunoassay (i.e., ELISA-based Correlate-EIA Direct cAMP Assay). […] This instrument also includes a Zymark Twister® robotic arm that handles microtiter plates and a purification SPE system. 35 μl of sample was aspirated from each well of a 384-well reaction microtiter plate and then injected onto a graphitized carbon SPE column extraction cartridge, washing with aqueous alkaline buffer and eluting it in an alkaline/organic solvent, onto the electrospray-MS, where the mass spectra of each sample was collected. The RapidFire sipper was washed between sample injections using organic (25% acetonitrile, 25% acetone in 5 mM ammonium acetate, pH 10) and aqueous (5 mM ammonium acetate, pH 10) solvents. RapidFire mass spectrometry screening data were processed and analyzed using Agilent MassHunter Software."}, "sAC": {"target": "sAC (Homo sapiens (Human), UniProt Q96PN6)", "sequence (Q96PN6 1-469)": "as above", "assay": "ELISA-based Correlate-EIA Direct cAMP Assay of in vitro sAC activity", "excerpt": "To avoid assay dependent artifacts, reproducibility and concentration-dependency were simultaneously assessed in the RF-MSS cyclase assay as well as in an independent colorimetric competitive enzyme immunoassay (i.e., ELISA-based Correlate-EIA Direct cAMP Assay)."}, "MEFs": {"test_system": "MEFs", "assay": "CellTiter-Glo cytotoxicity assay", "format": "cell-based, mouse", "method": "Cell viability, as determined by CellTiter-Glo, is shown as luminescence; values are averages of triplicate determinations ±S.E.M. of a representative experiment repeated at least two times. […] Data represent single measurements of a representative experiment repeated at least two times.\n(§1) The next day, compounds were added (ten concentrations), and the plates were incubated for 24 or 48 hrs at 37° C./5% CO2, and viability was quantified by measuring cellular ATP using luminescence (CellTiter-Glo®, Promega, Madison, Wis., USA) or viability based upon amount of DNA (CyQUANT®, ThermoFisher)."}, "mouse brain mitochondria": {"test_system": "mouse brain mitochondria", "assay": "Membrane potential in isolated mouse brain mitochondria (uncoupling)", "conditions": "50 and 100 μM LRE1, 50 μM KH7"}, "[3]": {"assay": "CyQUANT cell proliferation/viability assay", "format": "cell-based", "method": "as §1"}},
  "data": [
    {"smiles": "Cc1cccc(-n2nc(S)sc2=S)c1", "note": "[RU-0207328]", "values": [
      {"measurement": "Primary Screen (% NPI)", "setting": "human sACt protein [1]", "value": 58.1, "unit": "% NPI"},
      {"measurement": "IC50", "setting": "human sACt protein [2]", "value": "> 20", "unit": "µM"},
      {"measurement": "IC50", "setting": "sAC", "value": "> 20", "unit": "µM"}
    ]},
    {"smiles": "CC(Sc1nc2ccccc2[nH]1)C(=O)N/N=C/c1cc(Br)ccc1O", "note": "(centres unmarked) [KH7]", "values": [
      {"measurement": "toxicity (CellTiter-Glo)", "setting": "MEFs; 2 days in culture, WT MEFs, KH7 at low μM, LRE1 up to 50 μM", "value": "toxic"},
      {"measurement": "toxicity (CellTiter-Glo)", "setting": "MEFs; single day in culture", "value": "neither compound exhibited significant toxicity"},
      {"measurement": "mitochondrial uncoupling", "setting": "mouse brain mitochondria", "value": "uncoupling effect"},
      {"measurement": "toxicity (CyQUANT)", "setting": "[3]; second day", "value": "toxic at low μM concentrations"},
      {"measurement": "toxicity (CyQUANT)", "setting": "[3]; single day", "value": "neither LRE1 nor KH7 were toxic"}
    ]}
  ]
}
